One data set has as its system IL-8. Kind of data set: IL-8 mRNA expression induced by A2E (quantitative RT-PCR). It counts as cell-based, pig. The conditions noted are these: BIO203 20 mM (so in the source); A2E 20 μM; porcine RPE cells; p < 0.001. The method, then: RPE cells were obtained from pig eyes, as previously described. RPE cells were seeded on a 96-well plate at a density of 1.5 × 10^5 cells/cm^2 in DMEM 2% FCS. BIO201, BIO203, or its pure enantiomers were added in increasing concentrations to the culture medium 48 h before illumination. A2E was added to the medium at a final concentration of 30 μM, and 19 h later, blue-light illumination was performed for 50 min using a 96 blue-led device (Durand, St Clair de la Tour, France) emitting at 470 nm (1440 mcd, 8.6 mA). Just before illumination, the culture medium was replaced by a modified DMEM without any photosensitizer and with 2% FCS. Twenty-four hours after blue-light irradiation, all cell nuclei were stained with Hoechst 33342, and nuclei of dead cells with ethidium homodimer 2, fixed with paraformaldehyde (4% in PBS, 10 min) and 9 pictures per well were captured using a fluorescence microscope (Nikon TiE) equipped with a CoolSNAP HQ2 camera and driven by Metamorph Premier On-Line program. Quantification of live cells was performed using Metamorph Premier Off-Line and a homemade program by subtraction of dead cells from all cells. For cytokines mRNA analysis, RPE cells were seeded in 24-well plates and left untreated or treated with A2E or BIO203 alone or A2E plus BIO203. […]

In another data set the test system is Abca4−/− Rdh8−/− mice. Kind of data set: ERG after 6 months of oral complementation in Abca4−/− Rdh8−/− mice. The data set is classed as in vivo, mouse. The method, then:
The ERG in rats was performed using the electrophysiological system RETI-animal® from Roland Consult. ERG was recorded on both eyes from overnight dark-adapted animals. Rats were anesthetized by an intramuscular injection of a mix of Rompun® (xylazine)/Imalgene® (ketamine) before ERG measurement. Ten to fifteen minutes before measurement, one drop of Mydriaticum® (0.5% tropicamide) was instilled for pupillary dilatation. The A-wave and B-wave implicit times (ms) and amplitudes (µV) were measured for each ERG. The B-wave amplitude (value and %) was given as informative data. ERG parameters: Ganzfeld Q450C, Color: white maximum, Maximum intensity: 3 cd/m^2 (0 dB); Duration 0.24 ms; number of flashes: 1, Filter: 50 Hz, Impedance threshold: 50 kΩ. For scotopic ERGs, the A-wave amplitudes were measured from the baseline to the peak of the negative potential, whereas B-wave amplitudes were measured from the trough of the A-wave to the peak of the positive potential. The recordings obtained from these analyses were tabulated and normalized (%) for each eye. Group means, standard deviation, and median values were calculated, considering each eye from one animal as a separate value. ERG recordings in mice were performed as previously described.
A custom rodent diet was formulated and irradiated (25 kGy) by Envigo RMS SARL (Gannat, France). Low dose (LD)-BIO203 (50 μg/g) and high dose (HD)-BIO203 (500 μg/g) were incorporated into Teklad Custom Research Diet 2016© pellets. The pellets were stored at −20 °C until use and were administered ad libitum as the standard Teklad Global Rodent Diet 2016© used for the control group. The concentration of BIO203 in the customized pellets at the end of each batch was determined by HPLC MS/MS. The mean concentration was 46 μg/g ± 3.5 μg/g of pellet for the LD and 464 μg/g ± 24.3 μg/g of pellet for the HD. We calculated that in the LD group, male mice weighing 31.63 g after 2 months of complementation consumed 4.16 g of pellets, and in the HD group, male mice weighing 34.11 g after 2 months of complementation consumed 4.11 g of pellets every day, which correspond to a daily dose of 6.04 ± 0.46 mg/kg for the LD-BIO203 pellets and 55.91 ± 2.93 mg/kg for the HD-BIO203 pellets.
To test the preventive/curative action of oral administration of BIO203 against retinal neurodegeneration, a total of 27 Pigmented Abca4^−/− Rdh8^−/− mice carrying the Rpe65-Leu450 mutation and the rd8 mutation in the Crb1 gene from Case Western Reserve University of eleven to twelve months of age were used. […] After 6 months of complementation, ERG was measured in both eyes. […] In each group, half of the eyes were removed for A2E and BIO203 measurements, and half of the eyes were used for histological analyses and photoreceptor layer quantification.

In another data set the test system is VEGF. On the set-up: method as in PMID 34544906. The conditions noted are these: norbixin at 20 mM (so in the source); cited from earlier work.
The test system of a further data set is RXR. On the set-up: method as in PMID 34544906. The conditions noted are these: porcine RPE cells in vitro; cited from earlier work.

As to `COC1CCCN(C(=O)/C=C/C(C)=C/C=C/C(C)=C/C=C/C=C(C)/C=C/C=C(C)\C=C\C(=O)O)C1` (stereo not shown) [BIO203], the “change of IL-8 mRNA expression induced by A2E” value in the data set on IL-8 is given as −86.8%. Further, in the data set on Abca4−/− Rdh8−/− mice (HD pellets), the “photopic B wave ERG compared with control pellets” value is recorded as “no significant difference”. The “scotopic A wave ERG compared with control pellets” value in the data set on Abca4−/− Rdh8−/− mice (HD pellets, flash intensities 1 and 10 cd.s/m^2, p < 0.05) was “significantly superior”. Also, the “scotopic B wave ERG compared with control pellets” value in the data set on Abca4−/− Rdh8−/− mice (HD pellets, flash intensity 30 cd.s/m^2, p < 0.05) is “reduced the loss”. Besides, the “effect on the visual function (ERG)” value with Abca4−/− Rdh8−/− mice (LD pellets) is recorded as “No effect”.

For the molecule `CC(=C/C=C/C(C)=C/C=C/C=C(C)/C=C/C=C(C)/C=C/C(=O)O)/C=C/C(=O)O` [norbixin, 9′-cis-norbixin], the “effect on VEGF mRNA expression” value with VEGF is “significantly reduced”. For the same molecule, the “inhibition of RXR transactivation induced by A2E” value in the data set on RXR is “significantly inhibited”.

These data come from PMC10049354, “Anti-Inflammatory Effects and Photo- and Neuro-Protective Properties of BIO203, a New Amide Conjugate of Norbixin, in Development for the Treatment of Age-Related Macular Degeneration (AMD)” (International Journal of Molecular Sciences, 2023).
